Measurements as given in ChEMBL document CHEMBL5120777, “Incorporating Selenium into Heterocycles and Natural Products─From Chemical Properties to Pharmacological Activities” (J Med Chem, 2022).

Experiments:
Type in all cases: functional, cell-based
[1] = test system: SK-OV-3; assay: Antiproliferative activity against human SK-OV-3 cells assessed as inhibition of cell growth incubated for 72 hrs by MTT assay; conditions: SK-OV-3, 72 h
[2] = test system: PC-3; assay: Antiproliferative activity against human PC-3 cells assessed as inhibition of cell growth incubated for 72 hrs by MTT assay; conditions: PC-3, 72 h
[3] = test system: T47D; assay: Antiproliferative activity against human T47D cells assessed as inhibition of cell growth incubated for 72 hrs by MTT assay

CC(=O)O[C@H]1CC[C@@]2(C)C(=CC[C@@H]3[C@@H]2CC[C@]2(C)C(c4cccnc4)=CC[C@@H]32)C1 [ABIRATERONE ACETATE]
IC50 [1]: 51.5 µM
IC50 [2]: 37.6 µM
IC50 [3]: 34.7 µM
